Data reported in paper PMC4876372 (Scientific Reports, 2016).
Like-named read-outs stand apart in the source and are kept apart here.

Legend:
[1] = target: T1, His-tagged human recombinant MTH1 protein (Homo sapiens, UniProt P36639); assay: MTH1 enzyme assay (PPiLight pyrophosphate detection); assay type: biochemical; settings: for IC50: MTH1 2 nM; for Ki: Dixon plot; for manner of MTH1 inhibition: with respect to 8-oxo-dGTP and 2-OH-dATP, Lineweaver-Burk
T1 construct: His; purchased ProSpec
Protocol: An MTH1 enzyme assay was performed as described previously with minor modifications. Briefly, test compounds were dissolved in an assay buffer [100 mM Tris-acetate, 40 mM NaCl, 10 mM Mg(OAc)2, 0.005% Tween-20, and 2 mM dithiothreitol (DTT), pH 7.5] containing His-tagged human recombinant MTH1 protein (2 nM; ProSpec). […] Relative MTH1 activity was measured by monitoring the pyrophosphate (PPi) generated through MTH1-catalyzed nucleotide triphosphate hydrolysis. The luciferase-mediated luminescence signal was recorded for 30 min using a luminometer (Molecular Devices).

[2] = target: T2, His-tagged human recombinant ITPA protein (Homo sapiens, UniProt Q9BY32); assay: ITPA enzyme assay; assay type: biochemical; settings: at 100 μM
T2 construct: His; purchased ProSpec
Protocol: (§1) Likewise, the enzymatic activities of ITPA and DCTPP1 were measured using a PPiLight Inorganic Pyrophosphate Assay kit. For the ITPA enzyme assay, we used ITPA assay buffer (100 mM Tris-acetate, 50 mM Mg(OAc)2, 0.005% Tween-20, and 2 mM DTT, pH 7.5), His-tagged human recombinant ITPA protein (5 nM; ProSpec), and ITP (25 μM). For the DCTPP1 enzyme assay, we used DCTPP1 assay buffer (100 mM Tris-acetate, 100 mM NaCl, 10 mM Mg(OAc)2, 0.005% Tween-20, and 2 mM DTT, pH 7.5), His-tagged human recombinant DCTPP1 protein (50 nM; ATGen), and deoxycytidine triphosphate (dCTP; 50 μM).
(§2) To exclude false positive compounds that inhibit PPi detection, the effects of test compounds on 10 μM Na4P2O7-induced luciferase activity were examined.

[3] = target: T3, His-tagged human recombinant DCTPP1 protein (Homo sapiens, UniProt Q9H773); assay: DCTPP1 enzyme assay; assay type: biochemical; settings: at 100 μM
T3 construct: His; purchased ATGen
T3 sequence (Q9H773 1-170): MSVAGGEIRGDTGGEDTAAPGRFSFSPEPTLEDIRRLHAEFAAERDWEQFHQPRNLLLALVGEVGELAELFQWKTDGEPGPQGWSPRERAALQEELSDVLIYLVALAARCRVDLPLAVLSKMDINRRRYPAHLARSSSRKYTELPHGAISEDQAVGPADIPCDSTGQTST
Protocol: as §1, §2

[4] = Cell death assay (WST-8) in HeLa cells; assay type: cell-based, human; settings: human, HeLa cells (cervical cancer); 72 h, WST-8; read-out: cytotoxicity IC50 against HeLa cells
Protocol: (§3) Human cancer cell lines HeLa (cervical cancer), MIA PaCa-2 (pancreatic cancer), A431 (epidermoid carcinoma), and human embryonic kidney derived cell line HEK293T were cultured in Dulbecco’s Modified Eagle’s Medium (DMEM; Invitrogen) containing 10% fetal bovine serum (FBS), penicillin G (50 units/mL) and streptomycin (50 µg/mL). Human cancer cell lines Panc-1 (pancreatic cancer) and Jurkat (T cell lymphoma) were cultured in RPMI (Gibco) containing 10% FBS, penicillin G (50 units/mL) and streptomycin (50 µg/mL). Human osteosarcoma cell line MG-63, mouse embryonic fibroblast NIH3T3 cells and its transformant NIH3T3/KRAS cells1 were cultured in DMEM (Sigma-Aldrich) containing 10% calf serum, glutamine (0.3 g/L), penicillin G (50 units/mL), and streptomycin (50 µg/mL). All cell lines were incubated at 37 °C in a humidified atmosphere containing 5% CO2.
(§4) The cells were seeded in 96-well plates, cultured overnight, and treated with test compounds for the indicated time. Subsequently, cell viability was measured by the WST-8 assay, using Cell Count Reagent SF (Nacalai Tesque) according to the manufacturer ’s instructions, with the measurement of absorbance set at 450 nm on the ARVO SX 1420 Multilabel Counter (Wallac). […]

porcine tubulin = target: T4, porcine tubulin (Sus scrofa, UniProt P02550+P02554); assay: In vitro tubulin polymerization assay; assay type: biochemical; settings: even at 300 μM
T4 construct: purchased Cytoskeleton
T4 sequence (P02550 whole entry): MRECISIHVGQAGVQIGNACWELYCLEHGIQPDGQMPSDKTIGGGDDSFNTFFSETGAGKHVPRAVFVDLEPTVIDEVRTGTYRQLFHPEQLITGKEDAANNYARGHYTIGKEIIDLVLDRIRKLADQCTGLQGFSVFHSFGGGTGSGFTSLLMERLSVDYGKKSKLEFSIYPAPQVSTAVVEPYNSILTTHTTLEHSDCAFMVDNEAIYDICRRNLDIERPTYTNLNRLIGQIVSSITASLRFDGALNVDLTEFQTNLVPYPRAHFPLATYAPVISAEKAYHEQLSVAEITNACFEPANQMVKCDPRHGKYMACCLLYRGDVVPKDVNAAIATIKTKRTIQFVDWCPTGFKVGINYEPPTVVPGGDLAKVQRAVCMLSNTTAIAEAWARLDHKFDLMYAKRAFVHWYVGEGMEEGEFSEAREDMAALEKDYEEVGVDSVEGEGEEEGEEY
T4 sequence (P02554 whole entry): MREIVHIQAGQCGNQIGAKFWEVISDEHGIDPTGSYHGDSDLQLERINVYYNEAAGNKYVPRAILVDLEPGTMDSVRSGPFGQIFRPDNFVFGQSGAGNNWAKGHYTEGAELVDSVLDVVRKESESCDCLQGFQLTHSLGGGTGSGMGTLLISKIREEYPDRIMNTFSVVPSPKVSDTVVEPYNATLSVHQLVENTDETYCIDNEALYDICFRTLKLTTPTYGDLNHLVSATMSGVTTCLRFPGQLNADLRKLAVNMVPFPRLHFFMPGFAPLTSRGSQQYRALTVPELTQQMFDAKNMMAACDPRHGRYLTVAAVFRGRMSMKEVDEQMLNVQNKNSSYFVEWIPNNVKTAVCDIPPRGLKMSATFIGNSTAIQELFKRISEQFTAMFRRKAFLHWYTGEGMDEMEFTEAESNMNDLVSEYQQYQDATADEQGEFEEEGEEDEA
Protocol: In vitro tubulin polymerization assay was performed using a tubulin polymerization assay kit (Cytoskeleton) according to the manufacturer’s instructions. Briefly, lyophilized porcine tubulin was solubilized to a final concentration of 2 mg/mL in reaction buffer containing 80 mM piperazine-N,N′-bis(2-ethanesulfonic acid) (PIPES; pH 6.9), 2 mM MgCl2, 0.5 mM ethylene glycol tetraacetic acid (EGTA), 1 mM guanosine-5′-triphosphate (GTP), 10 μM fluorescent reporter, and 20% glycerol, and kept at 4 °C. Compounds (100 × DMSO stock solutions) were added to prewarmed half-area 96-well black plates. Cold tubulin solution was added to the wells. The plate contents were mixed by shaking, and fluorescence (Ex 350 nm, Em 435 nm) was read every minute for 1 h using a fluorescence microplate reader (Molecular Devices).

[5] = system: nuclear 53BP1 foci in HeLa cells; assay: 53BP1 foci immunofluorescence (DNA damage); assay type: cell-based, human; settings: 24 h, only at the higher concentrations (100-300 μM)
Protocol: For 53BP1, test compound–treated HeLa cells were fixed in 3% formalin in PBS containing 0.1% Triton X-100 for 15 min and permeabilized in 0.5% Triton X-100 for 5 min. After blocking with 10% FBS and 0.1% Triton X-100 in PBS for 1 h, cells were incubated sequentially with a primary antibody against 53BP1 (1:600, sc-22760; Santa Cruz Biotechnology) in blocking solution at 37 °C for 1 h and with Alexa Fluor 568-conjugated secondary antibody (1:400, Life Technologies) under the same condition.
After a quick rinse in PBS, DNA was counterstained with 0.5 µg/mL Hoechst 33342 (Sigma-Aldrich) in PBS at room temperature for 10 min. Images were analyzed on a fluorescence microscope (Delta Vision). […]

HeLa cells = assay: Cell cycle analysis (propidium iodide flow cytometry); assay type: cell-based, human; settings: 24 h, HeLa cells (Ctrl 0.9%)
Protocol: The HeLa cells were seeded in 12-well plates and treated with test compounds for the indicated time. Cells were harvested, washed with PBS, and incubated in propidium iodide (PI) solution containing 50 µg/mL propidium iodide, 0.1% sodium citrate, 0.2% Nonidet P-40, and 0.25 µg/mL RNase A (Nacalai Tesque) for 30 mi n in the dark.
Cellular DNA content was analyzed by fluorescence-activated cell sorting using a Cytomics FC500 (Beckman Coulter). […]

[6] = system: PANC-1, MIA PaCa-2, A431, Jurkat, MG-63, NIH3T3 and NIH3T3/KRAS cells; assay type: cell-based; settings: 72 or 96 h, WST-8
Protocol: as §3, §4

[7] = substrate 2-OH-dATP (8.3 μM), read-out: IC50 of MTH1 inhibitory activity, 2-OH-dATP
[8] = substrate 2-OH-dATP, read-out: Ki for 2-OH-dATP
[9] = substrate 8-oxo-dGTP, read-out: Ki for 8-oxo-dGTP

Nc1nc(NCCc2ccccc2)c2nc[nH]c2n1 [NPD9948]
IC50 [1, 7]: 500 ± 210 nM
Ki [1, 8]: 220 ± 40 nM
IC50 ([1]; substrate 8-oxo-dGTP (13.2 μM), read-out: IC50 of MTH1 inhibitory activity, 8-oxo-dGTP): 290 ± 50 nM
Ki [1, 9]: 130 ± 50 nM
manner of MTH1 inhibition [1]: competitive
effect on enzymatic activity of ITPA [2]: did not affect
effect on enzymatic activity of DCTPP1 [3]: did not affect
IC50 at 72 h [4]: 35000 nM
effect on tubulin polymerization in vitro (porcine tubulin): did not affect tubulin polymerization
DNA damage (nuclear 53BP1 foci formation) [5]: increased nuclear 53BP1 foci formation
sub-G1 cell population (HeLa cells; 100 μM): 8.2%
sub-G1 cell population (HeLa cells; 200 μM): 19%
cytotoxicity against cancer cell lines and KRAS-transformed fibroblast cells [6]: less potent cytotoxicity

CC1(C)CC2CC(C)(CN2c2ncnc3[nH]cnc23)C1 (stereo not shown) [NPD7155]
IC50 [1, 7]: 380 ± 160 nM
Ki [1, 8]: 180 ± 30 nM
Ki [1, 9]: 100 ± 40 nM
manner of MTH1 inhibition [1]: competitive
effect on enzymatic activity of ITPA [2]: did not affect
effect on enzymatic activity of DCTPP1 [3]: did not affect
IC50 at 72 h [4]: 65000 nM
effect on tubulin polymerization in vitro (porcine tubulin): did not affect tubulin polymerization
DNA damage (nuclear 53BP1 foci formation) [5]: increased nuclear 53BP1 foci formation
sub-G1 cell population (HeLa cells; 100 μM): 4.9%
sub-G1 cell population (HeLa cells; 200 μM): 9.0%
cytotoxicity against cancer cell lines and KRAS-transformed fibroblast cells [6]: less potent cytotoxicity
